Assay results from ChEMBL document CHEMBL1201862, “PubChem BioAssay data set” (2004).
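1) Cells in 96-well plates. 2) Compound, 48 h, 5 concentrations. 3) Linear interpolation between surrounding doses. 4) Unreached endpoint = highest concentration. GI50: concentration for 50% inhibition of growth.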 Activity calls are given as the source filed them. Rule as the data show it: active = GI50 up to about 1.1 µM and inactive = higher.

Columns and labels:
Assay in all cases: NCI anticancer screen, dose series, 48 h
ACHN = tested on: ACHN
CCRF-CEM = tested on: CCRF-CEM
EKVX = tested on: EKVX
HCT-15 = tested on: HCT-15
HL-60 = tested on: HL-60
HT-29 = tested on: HT-29
IGROV-1 = tested on: IGROV-1
KM12 = tested on: KM12
M14 = tested on: M14
Malme-3M = tested on: Malme-3M
OVCAR-4 = tested on: OVCAR-4
OVCAR-8 = tested on: OVCAR-8
RPMI-8226 = tested on: RPMI-8226
SF-295 = tested on: SF-295
SF-539 = tested on: SF-539
SW-620 = tested on: SW-620
UO-31 = tested on: UO-31
HCT-116 = tested on: HCT-116
SF-268 = tested on: SF-268
SK-OV-3 = tested on: SK-OV-3

| Compound | GI50 (ACHN) | GI50 (CCRF-CEM) | GI50 (EKVX) | GI50 (HCT-15) [µM] | GI50 (HL-60) | GI50 (HT-29) | GI50 (IGROV-1) | GI50 (KM12) | GI50 (M14) | GI50 (Malme-3M) | GI50 (OVCAR-4) | GI50 (OVCAR-8) | GI50 (RPMI-8226) | GI50 (SF-295) | GI50 (SF-539) | GI50 (SW-620) | GI50 (UO-31) | GI50 (HCT-116) | GI50 (SF-268) | GI50 (SK-OV-3) |
| --- | --- | --- | --- | --- | --- | --- | --- | --- | --- | --- | --- | --- | --- | --- | --- | --- | --- | --- | --- | --- |
| COc1ccc(S(=O)(=O)N/N=C/CN2C(=O)c3ccccc3C2=O)cc1 | > 100 µM (inactive) | > 100 µM (inactive) | > 100 µM (inactive) | > 100 | > 100 µM (inactive) | > 100 µM (inactive) | > 100 µM (inactive) | > 100 µM (inactive) | > 100 µM (inactive) | > 100 µM (inactive) | > 100 µM (inactive) | > 100 µM (inactive) | > 100 µM (inactive) | > 100 µM (inactive) | > 100 µM (inactive) | > 100 µM (inactive) | > 10 µM (inactive) | – | – | – |
| CCOC(=O)Cc1nc2c(N)ncnc2n1C1OC(COC(C)=O)C(OC(C)=O)C1OC(C)=O (configuration not stated) | > 100 µM (inactive) | > 100 µM (inactive) | > 100 µM (inactive) | > 100 | > 100 µM (inactive) | > 100 µM (inactive) | > 100 µM (inactive) | > 100 µM (inactive) | > 100 µM (inactive) | > 100 µM (inactive) | – | > 100 µM (inactive) | > 100 µM (inactive) | > 100 µM (inactive) | > 100 µM (inactive) | > 100 µM (inactive) | > 100 µM (inactive) | > 100 µM (inactive) | > 100 µM (inactive) | > 100 µM (inactive) |
| Oc1c2c(c(O)c3ccccc13)C1(N=N2)c2ccccc2Oc2ccccc21 | 3.79 µM (inactive) | 3.2 µM (inactive) | 13 µM (inactive) | 2.65 | 7.03 µM (inactive) | 6.11 µM (inactive) | 2.52 µM (inactive) | 15.4 µM (inactive) | 8.38 µM (inactive) | 2.48 µM (inactive) | – | 3.2 µM (inactive) | 2.88 µM (inactive) | 15 µM (inactive) | 5.74 µM (inactive) | 3.64 µM (inactive) | 6.68 µM (inactive) | 3.17 µM (inactive) | 11.6 µM (inactive) | 16 µM (inactive) |
| COC(=O)c1scc(N)c1-n1ccc(=O)[nH]c1=O | > 100 µM (inactive) | > 100 µM (inactive) | > 100 µM (inactive) | > 100 | > 100 µM (inactive) | > 100 µM (inactive) | > 100 µM (inactive) | > 100 µM (inactive) | > 100 µM (inactive) | > 100 µM (inactive) | > 100 µM (inactive) | > 100 µM (inactive) | > 100 µM (inactive) | – | > 100 µM (inactive) | > 100 µM (inactive) | > 100 µM (inactive) | > 100 µM (inactive) | > 100 µM (inactive) | – |
| CCOC(=O)NC(NNc1ccc([N+](=O)[O-])cc1[N+](=O)[O-])(C(F)(F)F)C(F)(F)F | 43.3 µM (inactive) | 20.6 µM (inactive) | 41.8 µM (inactive) | 27.9 | 14.4 µM (inactive) | 32.3 µM (inactive) | 54.8 µM (inactive) | 29.4 µM (inactive) | 65.2 µM (inactive) | 53.3 µM (inactive) | – | 30.8 µM (inactive) | 17.9 µM (inactive) | 59.7 µM (inactive) | 22.5 µM (inactive) | 40.3 µM (inactive) | 21.9 µM (inactive) | 32.1 µM (inactive) | 43.4 µM (inactive) | 23.4 µM (inactive) |
| Cc1[nH]c2c(C)cccc2c1C1Cc2ccccc2N1 (configuration not stated) | 27.4 µM (inactive) | 25.5 µM (inactive) | 15.5 µM (inactive) | 21.3 | 19.8 µM (inactive) | 19.5 µM (inactive) | 17.3 µM (inactive) | 17.5 µM (inactive) | 15.5 µM (inactive) | 19.1 µM (inactive) | – | 19.5 µM (inactive) | 22.9 µM (inactive) | 19.8 µM (inactive) | 17.8 µM (inactive) | 26.4 µM (inactive) | 22.1 µM (inactive) | 17 µM (inactive) | 20.5 µM (inactive) | 36.5 µM (inactive) |
| Cn1c(=O)sc2cc(C(=S)N3CCCCC3)ccc21 | 96.2 µM (inactive) | 16.5 µM (inactive) | 16.1 µM (inactive) | 93.8 | 17.7 µM (inactive) | > 100 µM (inactive) | 23.2 µM (inactive) | > 100 µM (inactive) | > 100 µM (inactive) | 0.865 µM (active) | – | 25.4 µM (inactive) | 61 µM (inactive) | 92.7 µM (inactive) | 54.5 µM (inactive) | > 100 µM (inactive) | – | 89.7 µM (inactive) | 25.6 µM (inactive) | > 100 µM (inactive) |
| Cc1nn(C(=O)c2ccncc2)c2c1C(c1ccccc1[N+](=O)[O-])SC(=N)N2 (configuration not stated) | > 10 µM (inactive) | 8.24 µM (inactive) | > 10 µM (inactive) | > 10 | > 10 µM (inactive) | > 10 µM (inactive) | > 10 µM (inactive) | > 10 µM (inactive) | > 10 µM (inactive) | > 10 µM (inactive) | > 10 µM (inactive) | > 10 µM (inactive) | > 10 µM (inactive) | > 10 µM (inactive) | > 10 µM (inactive) | > 10 µM (inactive) | – | > 10 µM (inactive) | > 10 µM (inactive) | – |
| COc1cc(O)cc2oc(-c3ccc(O)cc3)cc(=O)c12 | 64.7 µM (inactive) | > 100 µM (inactive) | > 100 µM (inactive) | > 100 | > 100 µM (inactive) | > 100 µM (inactive) | 47.3 µM (inactive) | > 100 µM (inactive) | > 100 µM (inactive) | 76.6 µM (inactive) | – | 34.4 µM (inactive) | 66.1 µM (inactive) | 36.2 µM (inactive) | > 100 µM (inactive) | 49.3 µM (inactive) | 55 µM (inactive) | 44.4 µM (inactive) | 67.8 µM (inactive) | > 100 µM (inactive) |
| CCCCCC/C=C\CCCCCCCCCc1cccc(OC)c1O | > 100 µM (inactive) | > 100 µM (inactive) | > 100 µM (inactive) | > 100 | > 100 µM (inactive) | > 100 µM (inactive) | > 100 µM (inactive) | 80 µM (inactive) | > 100 µM (inactive) | > 100 µM (inactive) | – | 38.3 µM (inactive) | > 100 µM (inactive) | > 100 µM (inactive) | > 100 µM (inactive) | > 100 µM (inactive) | > 100 µM (inactive) | 44.2 µM (inactive) | > 100 µM (inactive) | > 100 µM (inactive) |
| C/C(=N\NC(=S)N1CCCCCC1)c1nccnc1C | 0.219 µM (active) | 0.0607 µM (active) | 0.0188 µM (active) | < 0.01 | 0.0508 µM (active) | 0.0719 µM (active) | < 0.01 µM (active) | 0.0887 µM (active) | < 0.01 µM (active) | 11.8 µM (inactive) | 0.134 µM (active) | < 0.01 µM (active) | 0.159 µM (active) | 0.124 µM (active) | 0.242 µM (active) | < 0.01 µM (active) | – | – | 0.176 µM (active) | – |
